The values that follow come from patent publication US10065990B2, “Cyclic peptide compound, and preparation method, pharmaceutical composition and use thereof” (HANGZHOU GUANYU BIO-MEDICAL CO., LTD, priority 2013, dated 2018).

Structures are written as SMILES. Like-named read-outs stand apart in the source and are kept apart here.

One test addresses T1, HDAC7 (Homo sapiens, UniProt Q8WUI4).
T1 sequence (Q8WUI4 1-952): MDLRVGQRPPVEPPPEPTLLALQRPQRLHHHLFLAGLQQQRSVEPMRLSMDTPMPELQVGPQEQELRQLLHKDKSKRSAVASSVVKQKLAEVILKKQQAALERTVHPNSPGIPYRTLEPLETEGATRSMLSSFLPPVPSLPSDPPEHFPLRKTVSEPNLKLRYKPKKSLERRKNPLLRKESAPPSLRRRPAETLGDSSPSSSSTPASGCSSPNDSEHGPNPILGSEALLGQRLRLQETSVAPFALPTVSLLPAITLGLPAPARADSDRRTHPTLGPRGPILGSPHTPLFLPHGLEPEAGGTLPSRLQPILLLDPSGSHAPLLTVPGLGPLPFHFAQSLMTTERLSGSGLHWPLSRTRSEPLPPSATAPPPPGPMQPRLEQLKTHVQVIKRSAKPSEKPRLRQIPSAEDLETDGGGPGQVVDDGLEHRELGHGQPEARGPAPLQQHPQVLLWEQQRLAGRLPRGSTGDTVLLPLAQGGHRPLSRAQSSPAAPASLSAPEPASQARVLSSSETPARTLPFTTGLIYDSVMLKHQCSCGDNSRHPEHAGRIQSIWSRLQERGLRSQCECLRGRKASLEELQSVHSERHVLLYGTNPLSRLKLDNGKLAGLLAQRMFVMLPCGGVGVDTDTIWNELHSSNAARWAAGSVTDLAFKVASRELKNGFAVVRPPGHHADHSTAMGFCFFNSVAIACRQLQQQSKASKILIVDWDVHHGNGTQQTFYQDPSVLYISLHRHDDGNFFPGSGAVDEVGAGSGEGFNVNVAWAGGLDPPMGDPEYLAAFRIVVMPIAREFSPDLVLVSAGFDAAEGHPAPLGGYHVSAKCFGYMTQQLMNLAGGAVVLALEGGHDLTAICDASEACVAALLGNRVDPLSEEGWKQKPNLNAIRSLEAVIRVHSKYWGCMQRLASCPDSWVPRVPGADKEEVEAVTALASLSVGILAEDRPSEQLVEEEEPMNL
Kind of test: HDAC biochemical activity measurement (fluorescent substrate deacetylation).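 As to all read-outs here: fluorogenic deacetylation assay using acetyl-lysine substrate at 20 µM, enzyme and compound incubated 30 min at 37 °C, then developer added, fluorescence read at 360/460 nm.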 Conditions: for IC50 HDAC7: 37° C. 30 minutes.

The test system of test [1] is A549 (human lung cancer cells). Briefly: MTT cancer cell growth inhibition. Format: cell-based. The note with it: Homo sapiens, A549, 72 h, MTT, 72 hours incubation, read-out: GI50 A54. The source says: (§1) MTT assay principle is yellow MTT can penetrate membrane into the cell, succinic dehydrogenase of the mitochondria in living cells can make exogenous MTT reduction of insoluble in water of blue-violet acicular formazan for crystallization and deposition in the cell, crystallization can be dissolved dimethyl sulfoxide (DMSO) solution, detected its absorbance at 490 nm/570 nm wavelength by enzyme-linked immunosorbent assay, which can reflect the number of cells.
(§2) Using DMEM+10% FBS culture medium or using 1640+10% FBS culture, respectively.
(§3) a) Cells were seeded in 96-well plates with the inoculation of 1500/well, 190 μl/hole, 37° C., 5% of CO2 incubator overnight;
(§4) b) The next day each well was added 10 μl of different drugs. The final concentration of drug was 10^−5˜10^−10M, three parallel holes; 37° C., 5% CO2 culture incubator for 72 hours incubation;
(§5) c) Per well was added 20 μl 5 mg/ml of MTT, 37° C., 5% CO2 culture incubator for 4 hours incubation;
(§6) d) The supernatant was discarded. Each well was added 100 μl of DMSO and oscillation;
(§7) e) 570 nm readings. Calculate cell viability. GI50 calculation based on the results.

Test [2] concerns BGC-823 (human gastric cancer cells). Briefly: MTT cancer cell growth inhibition. The note with it: Homo sapiens, BGC-823, 72 h, MTT, 72 hours incubation, read-out: GI50 BG. Format: cell-based.
Source text: as §1, §2, §3, §4, §5, §6, §7

In test [3] the test system is Bel-7402 (human hepatoma cells). Briefly: MTT cancer cell growth inhibition. Format: cell-based. The note with it: Homo sapiens, Bel-7402, 72 h, MTT, 72 hours incubation, Bel-7402 cells; read-out: GI50 Bel-7402.
Source text: as §1, §2, §3, §4, §5, §6, §7

Test [4] has as its system DU145 (human prostate cancer cells). Kind of test: MTT cancer cell growth inhibition. The note with it: Homo sapiens, DU-145, 72 h, MTT, 72 hours incubation, read-out: GI50 Du1. Format: cell-based.
Source text: as §1, §2, §3, §4, §5, §6, §7

In test [5] the test system is H1975 (non-small cell lung adenocarcinoma). Kind of test: MTT cancer cell growth inhibition. Conditions: Homo sapiens, NCI-H1975, 72 h, MTT, 72 hours incubation, H1975 cells; read-out: GI50 H1975. Format: cell-based.
Source text: as §1, §2, §3, §4, §5, §6, §7

In test [6] the test system is HCC827 (human non-small cell lung cancer cells). Briefly: MTT cancer cell growth inhibition. Conditions: Homo sapiens, HCC827, 72 h, MTT, 72 hours incubation, HCC827 cells; read-out: GI50 HCC827. Format: cell-based.
Source text: as §1, §2, §3, §4, §5, §6, §7

In test [7] the test system is HT1080 (human fibrosarcoma cells). Kind of test: MTT cancer cell growth inhibition. Format: cell-based. The note with it: Homo sapiens, HT-1080, 72 h, MTT, 72 hours incubation, read-out: GI50 HT1.
Source text: as §1, §2, §3, §4, §5, §6, §7

The test system of test [8] is Hela (human cervical cancer cells). Kind of test: MTT cancer cell growth inhibition. The note with it: Homo sapiens, HeLa, 72 h, MTT, 72 hours incubation, read-out: GI50 Hela. Format: cell-based.
Source text: as §1, §2, §3, §4, §5, §6, §7

Test [9] has as its system Huh-7 (human hepatoma cells). Briefly: MTT cancer cell growth inhibition. Conditions: Homo sapiens, Huh-7, 72 h, MTT, 72 hours incubation, Huh-7 cells; read-out: GI50 Huh-7. Format: cell-based.
Source text: as §1, §2, §3, §4, §5, §6, §7

Test [10] deals with K562 (human leukemia cells). Briefly: MTT cancer cell growth inhibition. Format: cell-based. Conditions: Homo sapiens, K562, 72 h, MTT, 72 hours incubation, K562 cells; read-out: GI50 K562.
Source text: as §1, §2, §3, §4, §5, §6, §7

The test system of test [11] is KBM-5 (human chronic myelogenous leukemia). Kind of test: MTT cancer cell growth inhibition. In kind it is cell-based. The note with it: Homo sapiens, KBM5, 72 h, MTT, 72 hours incubation, KBM-5 cells; read-out: GI50 KBM-5.
Source text: as §1, §2, §3, §4, §5, §6, §7

The subject of test [12] is KBM5-T315I (human chronic myelogenous leukemia). Kind of test: MTT cancer cell growth inhibition. Format: cell-based. The note with it: Homo sapiens, 72 h, MTT, 72 hours incubation, KBM5-T315I cells; read-out: GI50 KBM5-T315I.
Source text: as §1, §2, §3, §4, §5, §6, §7

Test [13] relates to MCF-7 (human breast cancer cells). Briefly: MTT cancer cell growth inhibition. In kind it is cell-based. Conditions: Homo sapiens, MCF7, 72 h, 72 hours incubation, read-out: GI50 MCF.
Source text: as §1, §2, §3, §4, §5, §6, §7

In test [14] the test system is MDA-MB-231 (breast cancer cells). Briefly: MTT cancer cell growth inhibition. Format: cell-based. The note with it: Homo sapiens, MDA-MB-231, 72 h, read-out: GI50 MDA-MB-231, MTT, 72 hours incubation, MDA-MB-231 cells.
Source text: as §1, §2, §3, §4, §5, §6, §7

Test [15] has as its system MOLT-4 (human acute lymphoblastic leukemia cells). Kind of test: MTT cancer cell growth inhibition. Conditions: Homo sapiens, MOLT-4, 72 h, MTT, 72 hours incubation, read-out: GI50 Mol. In kind it is cell-based.
Source text: as §1, §2, §3, §4, §5, §6, §7

The test system of test [16] is N-87 (human gastric cancer cells). Kind of test: MTT cancer cell growth inhibition. Format: cell-based. Conditions: Homo sapiens, 72 h, MTT, 72 hours incubation, N-87 cells; read-out: GI50 N-87.
Source text: as §1, §2, §3, §4, §5, §6, §7

Test [17] deals with PANC-1 (Pac-1, human pancreatic cancer cells). Briefly: MTT cancer cell growth inhibition. Format: cell-based. Conditions: Homo sapiens, PANC-1, 72 h, MTT, 72 hours incubation, read-out: GI50 PAN.
Source text: as §1, §2, §3, §4, §5, §6, §7

Test [18] has as its system SGC-7901 (human gastric cancer cells). Kind of test: MTT cancer cell growth inhibition. Format: cell-based. The note with it: Homo sapiens, SGC-7901, 72 h, MTT, 72 hours incubation, SGC-7901 cells; read-out: GI50 SGC-7901.
Source text: as §1, §2, §3, §4, §5, §6, §7

Test [19] relates to U937 (human leukemia cells). Briefly: MTT cancer cell growth inhibition. Format: cell-based. The note with it: Homo sapiens, U-937, 72 h, MTT, 72 hours incubation, read-out: GI50 U93.
Source text: as §1, §2, §3, §4, §5, §6, §7

Test [20] concerns lncap (prostate cancer cells). Kind of test: MTT cancer cell growth inhibition. In kind it is cell-based. Conditions: Homo sapiens, LNCaP, 72 h, MTT, 72 hours incubation, read-out: GI50 lnca.
Source text: as §1, §2, §3, §4, §5, §6, §7

In the case of `C/C=C1\NC(=O)c2ccc(SC)c(n2)CNC(=O)C[C@@H](/C=C/CCSC(C)=O)OC(=O)[C@@H](C)NC1=O` [Compound 222], the “IC50 HDAC7” value against HDAC7 is recorded as “no activity”. Further, the GI50 came out at 50 nM in test [1] (A549 cells); 40 nM in test [2] (BGC-823 cells); 14 nM in test [3]; 30 nM in test [4] (DU145 cells); 83 nM in [5]; 63 nM in [6]. Further, the GI50 in [7] (HT1080 cells) turned out to be 70 nM; in test [8] (Hela cells), 20 nM; in test [9], 39 nM; in [10], 83 nM; in test [11], 43 nM; in test [12], 35 nM. For the same molecule, the GI50 turned out to be 70 nM in test [13] (MCF-7 cells); 52 nM in [14]; 30 nM in [15] (MOLT-4 cells); 98 nM in test [16]; 30 nM in test [17] (PANC-1 cells); 47 nM in test [18]. Further, the values for the 50% growth inhibitory concentration (GI50) in test [19] (U937 cells) and in test [20] (lncap cells) were 80 nM and 60 nM, respectively.

For `C/C=C1\NC(=O)c2ccc(F)c(n2)CNC(=O)C[C@@H](/C=C/CCSC(=O)CCCCCCC)OC(=O)[C@H](CC)NC1=O` [Example 56], on HDAC7, the “IC50 HDAC7” value was “no activity”. Moreover, the GI50 in [1] was 50 nM; in [2] it was 40 nM; in [3], 93 nM; in [4] it was 40 nM; in [5], 53 nM; in [6], 93 nM. Besides, the GI50 in [7] stood at 90 nM; in test [8] it was 80 nM; in [9] it was 37 nM; in [10], 43 nM; in test [11], 81 nM; in [12] it was 69 nM. For the same molecule, the concentration for 50% growth inhibition (GI50) was determined as 60 nM in test [13]; 37 nM in test [14]; 30 nM in test [15]; 42 nM in test [16]; 90 nM in [17]; 53 nM in test [18]. Further, the figures for the GI50 in test [19] and in [20] were 50 nM and 30 nM, respectively.

Turning to `C=C1NC(=O)c2cccc(n2)CNC(=O)C[C@@H](/C=C/CCS)OC(=O)[C@H](C(C)C)NC1=O` [Compound 131], at HDAC7, the “IC50 HDAC7” value is given as “no activity”. The GI50 in test [1] is 50 nM; in test [2], 40 nM; in test [3], 43 nM; in test [4] it was 60 nM; in test [5], 16 nM; in [6] it was 59 nM. For the same molecule, the GI50 in test [7] amounted to 80 nM; in test [8] it was 80 nM; in [9], 23 nM; in test [10] it was 45 nM; in test [11], 63 nM; in test [12], 45 nM. The concentration for 50% growth inhibition (GI50) in test [13] amounted to 60 nM; in test [14], 46 nM; in test [15], 80 nM; in test [16] it was 95 nM; in [17] it was 40 nM; in test [18] it was 31 nM. Also, the GI50 was found to be 50 nM in [19] and 80 nM in [20].

For the molecule `C/C=C1\NC(=O)c2ccc(SCC)c(n2)CNC(=O)C[C@@H](/C=C/CCSC(=O)CCCCC)OC(=O)[C@H](C(C)C)NC1=O` [Compound 255], the “IC50 (μM) HDAC7” value against HDAC7 is listed as “no activity”. Besides, the GI50 worked out at 30 nM in test [1] (A549 cells); 30 nM in test [2] (BGC-823 cells); 35 nM in test [3]; 40 nM in test [4] (DU145 cells); 68 nM in test [5]; 57 nM in test [6]. Further, the GI50 amounted to 60 nM in test [7] (HT1080 cells); 10 nM in test [8] (Hela cells); 45 nM in [9]; 56 nM in test [10]; 32 nM in test [11]; 37 nM in test [12]. The concentration for 50% growth inhibition (GI50) in test [13] (MCF-7 cells) was determined as 80 nM; in test [14], 23 nM; in [15] (MOLT-4 cells) it was 50 nM; in test [16], 51 nM; in [17] (PANC-1 cells), 40 nM; in [18], 48 nM. Besides, the GI50 in [19] (U937 cells) worked out at 20 nM; in test [20] (lncap cells), 50 nM.
